Laboratory results published in ChEMBL document CHEMBL1129111, “Neuroprotective (+) 3S, 4S cannabinoids with modified 5-side chain” (Bioorg Med Chem Lett, 1996).

What was measured:
Glutamate NMDA receptor = experiment: Compound was tested for its ability to displace [3H]- MK-801 binding to NMDA receptor in rat forebrain membranes.; format: cell membranes
Rattus norvegicus [1] = organism: Rattus norvegicus; experiment: Compound was tested for the protection of neurons against NMDA toxicity at concentration of 10 uM; format: functional
Rattus norvegicus [2] = organism: Rattus norvegicus; experiment: Compound was tested for neuronal cell toxicity in cortical neuron cell cultures extracted from fetal rat brains at concentration of 20 uM; format: functional, Brain
[3] = target: Glutamate NMDA receptor (Rattus norvegicus) (UniProt P35439+Q00959+Q00960+Q00961+Q62645+Q8VHN2+Q9R1M7); experiment: Compound was tested for its ability to inhibit [3H]- MK-801 binding to NMDA receptor in rat forebrain membranes at concentration of 100 uM; format: cell membranes; settings: Membrane
Rattus norvegicus [4] = organism: Rattus norvegicus; experiment: Compound was tested for neuronal cell toxicity in cortical neuron cell cultures extracted from fetal rat brains at concentration of 10 uM; format: functional, Brain

Structure (SMILES)	IC50 (Glutamate NMDA receptor)	Protection (Rattus norvegicus [1])	Morbidity (Rattus norvegicus [2])	inhibition [3]	Morbidity (Rattus norvegicus [4])
CC(C)(C)c1cc(O)c2c(c1)OC(C)(C)C1CC=C(CO)C[C@H]21 (some centres undefined)	30 µM	24%	36%	83%	15%
CCCCCCC(C)(C)c1cc(O)c2c(c1)OC(C)(C)C1CC=C(CO)C[C@H]21 (some centres undefined)	10 µM	63%		90%	25%
CCCC(C)(C)c1cc(O)c2c(c1)OC(C)(C)C1CC=C(CO)C[C@H]21 (some centres undefined)	30 µM	36%	0%	80%	0%
